Here are results for 4 compounds from patent US7071193B2, “7-amino-2-alkylthiopteridin-4-yl-amines for the treatment of chemokine-related diseases” (AstraZeneca AB, priority 2000, dated 2006).

Turning to `CC(CO)(CO)Nc1nc(SCc2cccc(F)c2F)nc2nc(N)cnc12` [Example 5, 2-[[7-Amino-2-[[(2,3-difluorophenyl)methyl]thio]-4-pteridinyl]amino]-2-methyl-1,3-propanediol], the melting point (as a rule, the temperature, or range, at which the solid turns liquid) fell in the range of 220 to 227 °C.
The figure for `C[C@H](CO)Nc1nc(SCc2cccc(Cl)c2F)nc2nc(N)cnc12` [Example 13, (2R)-2-[[7-amino-2-[[(3-chloro-2-fluorophenyl)methyl]thio]-4-pteridinyl]amino]-1-propanol] is 224 to 226 °C; for `Nc1cnc2c(NC(CO)CO)nc(SCc3cccc(F)c3F)nc2n1` [Example 2, 2-[[7-amino-2-[[(2,3-difluorophenyl)methyl]thio]-4-pteridinyl]amino]-1,3-propanediol] it is 251 to 253 °C; for `CC[C@H](CO)Nc1nc(SCc2cccc(F)c2F)nc2nc(N)cnc12` [Example 4, (2R)-2-[[7-Amino-2-[[(2,3-difluorophenyl)methyl]thio]-4-pteridinyl]amino]-1-butanol] it is 185 to 189 °C.
